Results on 14 compounds are retold here after PubChem BioAssay (NCI).

Some test systems named below: MDA-N; OVCAR-8 ovarian; MDA-MB-435; SNB-75 CNS; UACC-62 melanoma; CCRF-CEM leukemia; NCI-H226 lung; ACHN renal; RXF 393 renal; SK-MEL-2 melanoma; SNB-19 CNS.
Holding throughout (assay): NCI anticancer screen, dose series, 48 h

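Test compounds were applied to cells in 96-well plates for 48 hours at 5 doses. Definition used: TGI = concentration required for complete inhibition of growth.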 A value given as a limit tells only on which side of the number the result lay.

Take `c1csc(-c2nn3c(C45CC6CC(CC(C6)C4)C5)nnc3s2)c1`: the TGI in the assay on MDA-N, in the assay on OVCAR-8 ovarian, with MDA-MB-435, with SNB-75 CNS, in the assay with UACC-62 melanoma and in the assay with CCRF-CEM leukemia was above 100 µM in each case. Moreover, the TGI in the assay with NCI-H226 lung, with ACHN renal, in the assay on RXF 393 renal, with SK-MEL-2 melanoma and in the assay with SNB-19 CNS was above 100 µM each time.
`Cc1cc(S(=O)(=O)Nc2n[nH]c(-c3ccc(Cl)cc3)n2)c(SSc2cc(Cl)c(C)cc2S(=O)(=O)Nc2n[nH]c(-c3ccc(Cl)cc3)n2)cc1Cl`: the TGI was above 100 µM with MDA-N; above 100 µM in the assay on OVCAR-8 ovarian; above 100 µM in the assay with MDA-MB-435; 76.1 µM in the assay with SNB-75 CNS; 47 µM in the assay on UACC-62 melanoma; 60.6 µM in the assay with CCRF-CEM leukemia. In addition, the figures for the TGI in the assay with NCI-H226 lung, in the assay on ACHN renal and in the assay on RXF 393 renal were 73.3 µM, 98.5 µM and 63.7 µM, respectively.
In the case of `OC1(C(Sc2cc(C(F)(F)F)cc(C(F)(F)F)c2)Sc2cc(C(F)(F)F)cc(C(F)(F)F)c2)C=CCCC1` (stereo not drawn), the TGI in the assay with MDA-N amounted to 8.16 µM; with OVCAR-8 ovarian, 7.9 µM; in the assay with MDA-MB-435, 7.03 µM; in the assay with SNB-75 CNS, 10.8 µM; in the assay on UACC-62 melanoma, 7.79 µM; in the assay on CCRF-CEM leukemia, 6.39 µM. The TGI in the assay with ACHN renal was found to be 5.77 µM; with RXF 393 renal, 4.77 µM; in the assay on SNB-19 CNS, 8.2 µM.
With `COc1ccc(C2SC(N)=Nc3c2c(C)nn3C(=O)c2ccccc2O)cc1OC` (stereo not drawn), the TGI with MDA-N is above 10 µM; in the assay with MDA-MB-435, above 10 µM; in the assay on SNB-75 CNS, 9.32 µM; in the assay on UACC-62 melanoma, 7.93 µM; in the assay on CCRF-CEM leukemia it was above 10 µM; with NCI-H226 lung, above 10 µM. For the same compound, the TGI with ACHN renal, in the assay on RXF 393 renal, in the assay with SK-MEL-2 melanoma and in the assay on SNB-19 CNS was above 10 µM in each case.
`COC(=O)[C@]12CC3C=CC1N(C3)C(CBr)c1c2n(S(=O)(=O)c2ccccc2)c2ccccc12` (stereo partly drawn): the TGI is above 100 µM in the assay on MDA-N; above 100 µM in the assay on OVCAR-8 ovarian; above 100 µM with MDA-MB-435; 86.2 µM in the assay on SNB-75 CNS; above 100 µM with UACC-62 melanoma; above 100 µM with CCRF-CEM leukemia. Moreover, the TGI with NCI-H226 lung, in the assay on ACHN renal, in the assay with RXF 393 renal and with SK-MEL-2 melanoma was above 100 µM throughout.
Consider `N#CC12C(=O)NC(=O)C1(C#N)C1C=CC2CC1` (stereo not drawn), for which the TGI with MDA-N, in the assay on OVCAR-8 ovarian, in the assay on MDA-MB-435, in the assay with SNB-75 CNS, in the assay on UACC-62 melanoma and in the assay on CCRF-CEM leukemia was above 100 µM in each case. Besides, the TGI with NCI-H226 lung, in the assay on ACHN renal, in the assay on RXF 393 renal and with SNB-19 CNS was above 100 µM throughout.
As for `COC(=O)c1c([N+](=O)[O-])ncn1[C@H]1OC[C@@H](OC(C)=O)[C@@H](OC(C)=O)[C@@H]1OC(C)=O`, the TGI in the assay with MDA-N, with OVCAR-8 ovarian, in the assay on MDA-MB-435, with SNB-75 CNS, in the assay with UACC-62 melanoma and in the assay on CCRF-CEM leukemia was above 100 µM each time. Moreover, the TGI with NCI-H226 lung, in the assay on ACHN renal, with RXF 393 renal and in the assay on SNB-19 CNS was above 100 µM in each case.
Regarding `O=C1C2C(C(=O)N1c1ccccc1)C1(c3ccccc3)CCC2(C(=O)c2ccccc2)O1` (stereo not drawn), the TGI with MDA-N, with OVCAR-8 ovarian, with MDA-MB-435, with UACC-62 melanoma, with CCRF-CEM leukemia and in the assay with ACHN renal was above 10 µM in each case. The TGI in the assay on RXF 393 renal, with SK-MEL-2 melanoma and with SNB-19 CNS was above 10 µM in each case.
As for `Cc1ccc(CC2(C(=O)O)Cc3ccc(C)cc3C2)cc1` (stereo not drawn), the TGI with MDA-N, in the assay with OVCAR-8 ovarian, in the assay with MDA-MB-435, with SNB-75 CNS, in the assay with UACC-62 melanoma and with CCRF-CEM leukemia was above 100 µM throughout. For the same compound, the TGI in the assay on NCI-H226 lung, in the assay on ACHN renal, in the assay with SK-MEL-2 melanoma and in the assay with SNB-19 CNS was above 100 µM in each case.
As to `Cc1ccc(CC(Cc2ccccc2C)C(=O)O)c(C(=O)O)c1` (stereo not drawn), the TGI in the assay with MDA-N, with OVCAR-8 ovarian, in the assay with MDA-MB-435, in the assay on SNB-75 CNS, in the assay with CCRF-CEM leukemia and in the assay with NCI-H226 lung was above 100 µM each time. In addition, the TGI in the assay with ACHN renal, in the assay on RXF 393 renal, in the assay with SK-MEL-2 melanoma and in the assay on SNB-19 CNS was above 100 µM in each case.
Take `COc1ccccc1Nc1nc2c([nH]1)c(=O)n(C)c(=O)n2C`: the TGI in the assay on MDA-N, in the assay with OVCAR-8 ovarian, in the assay on MDA-MB-435, with SNB-75 CNS, in the assay with UACC-62 melanoma and with CCRF-CEM leukemia was above 10 µM in each case. This compound also yielded a TGI in the assay on RXF 393 renal above 10 µM.
`O=C(Nc1ccc(C(F)(F)F)cc1)NC(F)(F)F`: the TGI with MDA-N, with OVCAR-8 ovarian, in the assay with MDA-MB-435, with SNB-75 CNS, in the assay on CCRF-CEM leukemia and with ACHN renal was above 100 µM each time. Besides, the TGI with RXF 393 renal, with SK-MEL-2 melanoma and in the assay with SNB-19 CNS was above 100 µM in each case.
Regarding `CSc1ncnc2c1ncn2CCC(=O)O`, the TGI with MDA-N, in the assay with OVCAR-8 ovarian, with MDA-MB-435, in the assay with SNB-75 CNS, in the assay on UACC-62 melanoma and in the assay with CCRF-CEM leukemia was above 100 µM each time. The TGI in the assay on NCI-H226 lung, in the assay on ACHN renal, in the assay on RXF 393 renal and in the assay with SNB-19 CNS was above 100 µM each time.
`CC(=O)c1nc2ccccc2n1C(C)C(=O)c1ccccc1` (stereo not drawn): the TGI in the assay on MDA-N, in the assay on OVCAR-8 ovarian, in the assay on MDA-MB-435, in the assay with SNB-75 CNS, in the assay with UACC-62 melanoma and in the assay on CCRF-CEM leukemia was above 100 µM in each case. Besides, the TGI in the assay with NCI-H226 lung, in the assay on RXF 393 renal and with SNB-19 CNS was above 100 µM throughout.
